O=c1cc(-c2ccccc2)oc2c1ccc1ccccc12
Conditions	solubility (mole fraction)
in 1,4-dioxane, 288.15 K	0.0128
in 1,4-dioxane, 293.15 K	0.0158
in 1,4-dioxane, 298.15 K	0.019
in 1,4-dioxane, 303.15 K	0.0223
in 1,4-dioxane, 308.15 K	0.0259
in 1,4-dioxane, 313.15 K	0.0307
in 1,4-dioxane, 318.15 K	0.0363
in acetone, 273.15 K	0.00209
in acetone, 278.15 K	0.00273
in acetone, 283.15 K	0.00326
in acetone, 288.15 K	0.00392
in acetone, 293.15 K	0.00466
in acetone, 298.15 K	0.00546
in acetone, 303.15 K	0.00636
in acetone, 308.15 K	0.00736
in acetone, 313.15 K	0.00846
in acetone, 318.15 K	0.00963
in acetonitrile, 273.15 K	0.000628
in acetonitrile, 278.15 K	0.000846
in acetonitrile, 283.15 K	0.00105
in acetonitrile, 288.15 K	0.00126
in acetonitrile, 293.15 K	0.0015
in acetonitrile, 298.15 K	0.00176
in acetonitrile, 303.15 K	0.00204
in acetonitrile, 308.15 K	0.00242
in acetonitrile, 313.15 K	0.00291
in acetonitrile, 318.15 K	0.0034
in cyclohexane, 283.15 K	0.000138
in cyclohexane, 288.15 K	0.000189
in cyclohexane, 293.15 K	0.000246
in cyclohexane, 298.15 K	0.00031
in cyclohexane, 303.15 K	0.000391
in cyclohexane, 308.15 K	0.000477
in cyclohexane, 313.15 K	0.000573
in cyclohexane, 318.15 K	0.000694
in ethanol, 273.2 K	0.000306
in ethanol, 278.2 K	0.000475
in ethanol, 283.2 K	0.000677
in ethanol, 288.2 K	0.000892
in ethanol, 293.2 K	0.00113
in ethanol, 298.2 K	0.00136
in ethanol, 303.2 K	0.00163
in ethanol, 308.2 K	0.00197
in ethanol, 313.2 K	0.00235
in ethanol, 318.2 K	0.00277
in ethyl acetate, 273.15 K	0.00271
in ethyl acetate, 278.15 K	0.00331
in ethyl acetate, 283.15 K	0.00391
in ethyl acetate, 288.15 K	0.00461
in ethyl acetate, 293.15 K	0.00532
in ethyl acetate, 298.15 K	0.00614
in ethyl acetate, 303.15 K	0.0071
in ethyl acetate, 308.15 K	0.00824
in ethyl acetate, 313.15 K	0.00948
in ethyl acetate, 318.15 K	0.0109
in isobutanol, 273.15 K	0.000861
in isobutanol, 278.15 K	0.00118
in isobutanol, 283.15 K	0.00153
in isobutanol, 288.15 K	0.0019
in isobutanol, 293.15 K	0.00231
in isobutanol, 298.15 K	0.00279
in isobutanol, 303.15 K	0.00331
in isobutanol, 308.15 K	0.00396
in isobutanol, 313.15 K	0.00475
in isobutanol, 318.15 K	0.00554
in isopropanol, 273.2 K	0.000474
in isopropanol, 278.2 K	0.000676
in isopropanol, 283.2 K	0.00085
in isopropanol, 288.2 K	0.00105
in isopropanol, 293.2 K	0.00127
in isopropanol, 298.2 K	0.00153
in isopropanol, 303.2 K	0.00181
in isopropanol, 308.2 K	0.0022
in isopropanol, 313.2 K	0.00265
in isopropanol, 318.2 K	0.00313
in methanol, 273.2 K	0.000712
in methanol, 278.2 K	0.000934
in methanol, 283.2 K	0.00119
in methanol, 288.2 K	0.00144
in methanol, 293.2 K	0.00171
in methanol, 298.2 K	0.00203
in methanol, 303.2 K	0.00238
in methanol, 308.2 K	0.00277
in methanol, 313.2 K	0.00335
in methanol, 318.2 K	0.00398
in n-butanol, 273.15 K	0.00106
in n-butanol, 278.15 K	0.00149
in n-butanol, 283.15 K	0.00194
in n-butanol, 288.15 K	0.00244
in n-butanol, 293.15 K	0.00291
in n-butanol, 298.15 K	0.00346
in n-butanol, 303.15 K	0.00412
in n-butanol, 308.15 K	0.00487
in n-butanol, 313.15 K	0.00575
in n-butanol, 318.15 K	0.00673
in n-propanol, 273.2 K	0.000773
in n-propanol, 278.2 K	0.00105
in n-propanol, 283.2 K	0.0014
in n-propanol, 288.2 K	0.00178
in n-propanol, 293.2 K	0.00218
in n-propanol, 298.2 K	0.00261
in n-propanol, 303.2 K	0.0031
in n-propanol, 308.2 K	0.00364
in n-propanol, 313.2 K	0.00424
in n-propanol, 318.2 K	0.005
in toluene, 273.15 K	0.00423
in toluene, 278.15 K	0.00517
in toluene, 283.15 K	0.00623
in toluene, 288.15 K	0.00735
in toluene, 293.15 K	0.00862
in toluene, 298.15 K	0.01
in toluene, 303.15 K	0.0116
in toluene, 308.15 K	0.0136
in toluene, 313.15 K	0.0155
in toluene, 318.15 K	0.0178
